For two compounds, IC50 results are on record in patent US11161830B2, “4-pyridone compound or salt thereof, and pharmaceutical composition and formulation including same” (priority 2017, dated 2021).

Where two headings read alike, the source gives them in different places.

In one test the test system is HBV (genotype CAT). Put plainly: Test Example 2-2: anti-HBV assay in PXB-cells (fresh human hepatocytes). In kind it is cell-based. Particulars: Hepatitis B virus, Hepatocyte. The procedure: Using fresh human hepatocytes (PXB-cells, manufactured by PhenixBio Co., Ltd.) collected from a PXB mouse (a chimeric mouse with human hepatocytes), the anti-HBV activity of the representative compounds was evaluated in the following procedure.
The following was used as a medium:
DMEM (manufactured by Sigma)+0.25 μg/mL insulin (manufactured by Wako)+1% penicillin/streptomycin. (manufactured by Sigma)+20 mmol/L HEPES (manufactured by Sigma)+15 μg/mL L-proline (manufactured by Sigma)+50 nmol/L dexamethasone (manufactured by Sigma)+5 ng/mL EGF (manufactured by Peprotech)+0.1 mmol/L ascorbic acid 2-phosphate (manufactured by Wako)+10% FBS+2% DMSO
Each of the test compounds) was further added to the medium to prepare a test solution containing each of the test compounds at various concentrations.
(1) PXB-cells seeded at a seeding density of 2.1×10^5 cells/cm^2 in a 96-well microliter plate were incubated in a 5% CO2 incubator at 37° C. until a day on which the cells were infected.
(2) A HBV (genotype CAT) prepared by transfecting an HBV plasmid into an HepG2 cell was suspended in the medium containing 4% PEG-8000, and added to the plate of (1) at about 30 copies/cell such that the PXB cells were infected (100 μL/well), and the plate was incubated in a 5% CO2 incubator at 37° C. for 1 day.
(3) The culture supernatant on day 1 post infection was removed and the cells were washed three times with DMEM containing 10% FBS and 1% penicillin/streptomycin. Then, the medium was added to the plate (100 μL/well) and the plate was incubated in a 5% CO2 incubator at 37° C. for 1 day.
(4) The culture supernatant on day 2 post infection was removed and the cells were washed three times with DMEM containing 10% FBS and 1% penicillin/streptomycin. Then, the medium was added to the plate (100 μL/well) and the plate was incubated in a 5% CO2 incubator at 37° C. for 5 days.
(5) The culture supernatant on day 7 post infection was removed, the medium was added to the plate (100 μL/well), and the plate was incubated in a 5% CO2 incubator at 37° C. for 5 days.
(6) The culture supernatant on day 12 post infection was removed, the medium was added to the plate (100 μL/well), and the plate was incubated in a 5% CO2 incubator at 37° C. for 5 days.
(7) The culture supernatant on day 17 post infection was removed, the test solution was added to the plate (100 μL/well), and the plate was incubated in a 5% CO2 incubator at 37° C. for 5 days. As a control without the compound added, the medium was added to the plate (100 μL/well) and the plate was incubated in a 5% CO2 incubator at 37° C. for 5 days.
(8) The culture supernatant on day 22 post infection was removed, the test solution was added to the plate (100 μL/well), and the plate was incubated in a 5% CO2 incubator at 37° C. for 5 days. As a control without the compound added, the medium was added to the plate (100 μL/well) and the plate was incubated in a 5% CO2 incubator at 37° C. for 5 days.
(9) The culture supernatant on day 27 post infection was removed, the test solution was added to the plate (100 μL/well), and the plate was incubated in a 5% CO2 incubator at 37° C. for 5 days. As a control without the compound added, the medium was added to the plate (100 μL/well) and the plate was incubated in a 5% CO2 incubator at 37° C. for 5 days.
(10) The culture supernatant on day 32 post infection was collected.
(11) The collected culture supernatant on day 32 post infection was treated with a mixture of Buffer AL (manufactured by QIAGEN) and Proteinase K (manufactured by Invitrogen). The amount of HBV-DNA in the obtained solution was absolutely quantified by a real-time PCR method. In addition, the amount of HBsAg in the culture supernatant was absolutely quantified by chemiluminescent enzyme immunoassay using Lumipulse (registered trademark) HBsAg-HQ (manufactured by Fujirebio Inc.). A relative viral load (%) with respect to a control without the compound added was each calculated. […]

Another test has as its system HBV. Nature of the test: Test Example 1-1: anti-HBV assay in HepG2.2.15 cells (test solution 200 μL/well). Type of test: cell-based, hepatitis B virus. Particulars: Hepatitis B virus, culture supernatant. An outline of the steps:
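HepG2.2.15 cells (HBV genome, persistent virus production) pre-cultured 2 days, then treated with compound in 0.25% DMSO medium for 4 days, refreshed for 3 more days at 37 °C. Supernatant HBV-DNA measured by real-time PCR and HBsAg by chemiluminescent immunoassay. IC50 = 50% reduction versus DMSO control, linear regression on log concentration.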

As for `COCCN1CCN(c2nc3ccc(-n4cc(C(=O)O)c(=O)cc4-c4ccc(N5CCCC5)c(Cl)c4)cc3s2)CC1` [Example 6-5, 6-(3-chloro-4-(pyrrolidin-1-yl)phenyl)-1-(2-(4-(2-methoxyethyl)piperazine-1-yl)benzo[d]thiazol-6-yl)-4-oxo-1,4-dihydropyridine-3-carboxylic acid], the 50% inhibitory concentration (IC50) in the test on HBV (genotype CAT) (read-out: IC50 HBV-DNA, PXB-cells infected with HBV genotype CAT, culture supernatant on day 32 post infection) was 76 nM; with HBV (genotype CAT) (read-out: IC50 HBsAg, PXB-cells infected with HBV genotype CAT, culture supernatant on day 32 post infection), 61 nM.
As for `COC[C@H]1CCCN1c1nc2ccc(-n3cc(C(=O)O)c(=O)cc3-c3ccc(N4CC[C@@H](OC)C4)cc3)cc2s1` [Example 10-2, 1-(2-((R)-2-(methoxymethyl)pyrrolidin-1-yl)benzo[d]thiazol-6-yl)-6-(4-((R)-3-methoxypyrrolidin-1-yl)phenyl)-4-oxo-1,4-dihydropyridine-3-carboxylic acid], the IC50 came to 5.2 nM in the test on HBV (read-out: IC50 HBV-DNA) and 2.7 nM with HBV (read-out: IC50 HBsAg).

By IC50 is commonly meant the concentration that gives 50% inhibition.
